Test results published in publication PMC11679558, “Novel Peptidomimetic Cyclo-{E(I)-E(W)}Na (CP-88) with Hematopoietic Activity Sustained in Invasive and Oral Administration: Experimental and Preclinical Evaluation” (International Journal of Molecular Sciences, 2024).
Peptide text beside a SMILES is read from it.

What was measured:
[1] = cited from earlier work
Source text: Several cyclopeptides (A1–A5) indicated stimulatory hematopoietic activity sustained in invasive and oral administration.

[2] = Pharmacokinetics of Stemokin in mice using 3H-Stemokin; format: in vivo; conditions: parenteral administration
Procedure: The additional goal of this study was to estimate Stemokin’s pharmacokinetics using 3H-Stemokin.
The main radioactivity was accumulated in the bone marrow. This exceptional tropism to bone marrow could explain its significant hemostimulating activity (Table 4 and Table 5, line 3 underlying the extraordinary tropism of Stemokin to Bone marrow tissue).
Pharmacokinetics of Stemokin With parenteral administration of the drug, a Cmax in the blood was achieved after 5 min […]. A Cmax was observed 30–40 min after administration in bone marrow, liver, kidneys, and lymph nodes. The drug’s T1/2 is 24 h and is eliminated from the body within 72 h. The pharmacokinetics of Stemokin was studied using ^3H-Stemokin, obtained by thermal activation of gaseous tritium. 3H-Stemokin was administered intramuscularly to BDF1 female mice, and 72 h after a single dose, the levels of ^3H-radioactivity were determined in animal organs and tissues. The main amount of radioactivity, ~80%, was excreted within 24 h after administration of ^3H-Stemokin and was less than 5% of the administered dose (Table 4 and Table 5).

[3] = Interspecies extrapolation of the toxicological results to humans; conditions: interspecies extrapolation from the toxicological test results
Procedure: The toxicological test results conclude that in humans, considering interspecies extrapolation, CP-88 can be practically safe with a single and course administration in doses of up to 100 μg/kg. In the first phase of clinical trials, it is advisable to test the drug for tolerability, starting with a dose of 1 μg/kg. The dose can be increased to 10 μg/kg daily with no adverse reactions detected in the clinical results.

mice (CBA/C57BL6) F1 = assay: Acute toxicity of CP-88 in mice; format: in vivo; conditions: male and female mice, intraperitoneally once, 0.2 mL per animal; doses 500, 1000 and 10,000 μg/kg
Procedure: This study of acute and chronic toxicity of CP-88 was conducted under the requirements of regulatory documents that regulate this study and are part of a complex of preclinical studies on acute and chronic toxicity that are required for the registration of drugs. Fifty-six male and fifty-six female mice, line (CBA/C57BL6) F1, were used for this study.
To determine acute toxicity, peptide was administered to male and female mice (CBA/C57BL6) F1 (56 male and 56 female mice). The animals were obtained from the Scientific and Production Enterprise “Stolbovaya” Laboratory Animal Nursery, Moscow Region, at the age of 4 weeks. Upon receipt, an external examination of the animal’s condition was conducted.
The drug was administered in the form of aqueous solutions intraperitoneally in doses of 500, 1000, and 10,000 μg/kg in a volume of 0.2 mL per mouse, which exceeded the effective doses of the drug by 50 to 1000 times. Animals of the same batch, injected with distilled water in a volume of 0.2 mL per animal (control substance), were used as a biological control.

## c[DAlaDGlu(DTrp)] [B1]
[1]
  immuno and hemosuppressive activity (in words): immuno and hemosuppressive activity

## CC[C@H](C)[C@H](N)C(=O)N[C@@H](CCC(=O)O)C(=O)N[C@@H](Cc1c[nH]c2ccccc12)C(=O)O [Stemokin, Ile-Glu-Trp] (H-Ile-Glu-Trp-OH)
[2]
  T1/2: 24 h
  time to Cmax in bone marrow, liver, kidneys, and lymph nodes: 30 to 40 min
  time within which the drug is eliminated from the body: ≤ 72 h

## c[DTyrDGlu(DTrp)] [B9]
[1]
  immuno and hemosuppressive activity (in words): immuno and hemosuppressive activity

## cyclo[Lys(Palmitoyl)-Glu(D-Trp)] [E3]
[1]
  adjuvant activity (in words): adjuvant activity

## c[DPheDGlu(DTrp)] [B6]
[1]
  immuno and hemosuppressive activity (in words): immuno and hemosuppressive activity

## cyclo[L-Lys(N-acetyl-Glucosamine-N-acetyl-muramyl)-L-Glu(L-Trp)] [E1]
[1]
  adjuvant activity (in words): adjuvant activity

## c[DLysDGlu(DTrp)] [B5]
[1]
  immuno and hemosuppressive activity (in words): immuno and hemosuppressive activity

## CC[C@H](C)[C@H](NC(=O)CC[C@@H]1NC(=O)[C@H](CCC(=O)N[C@@H](Cc2c[nH]c3ccccc23)C(=O)O)NC1=O)C(=O)O [CP-88, Cyclo-[Glu(Ile)-Glu(Trp)]]
[3]
  practically safe dose in humans with a single and course administration: up to 100 μg/kg
Mice (CBA/C57BL6) F1
  acute toxicity: doses with no toxic effects: up to 10,000 µg/kg
